# Measured values from US11827628B2, “Compositions and methods for inhibition of the JAK pathway” (Rigel Pharmaceuticals, Inc., priority 2005, dated 2023).
# Assays:
# Primary human T-cells = assay: Primary Human T-Cell Proliferation Assay Stimulated with IL-2 (CellTiter-Glo); format: cell-based; conditions: primary human T-cell proliferation stimulated with IL-2; read-out: IC50, Example 42
# Summary of the method: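 Peripheral blood T-cells pre-activated with anti-CD3/anti-CD28 and IL-2 were washed free of IL-2, then cultured with compound plus IL-2 for 72 hours at 37° C, duplicate wells. Viability read as ATP by CellTiter-Glo luminescence; IC50 reported.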
# [1] = test system: IL-4 stimulated expression of CD23 in human Ramos B cells (JAK-1 and JAK-3); assay: Assay for Ramos B-Cell Line Stimulated with IL-4 (CD23 upregulation, FACS); format: cell-based; conditions: Ramos B-cell line stimulated with IL-4; CD23 expression by FACS; read-out: IC50, Example 41
# Summary of the method: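 Read-out is surface CD23 by FACS after anti-CD23-PE staining, giving IC50. Before this, cells were stimulated 20-24 h with 50 units/mL (final) human IL-4, following 1 h compound or vehicle pre-treatment at 37 °C; log-phase Ramos B cells, 5×10^4 per well in 5% serum RPMI.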
compound,measurement,setting,value
"Cc1noc(COc2cccc(Nc3nc(Nc4cccc(S(N)(=O)=O)c4)ncc3F)c2)n1 [Compound I-252, N2-(3-Aminosulfonylphenyl)-5-fluoro-N4-[3-(3-methyl-1,2,4-oxadiazol-5-yl)methyleneoxyphenyl]-2,4-pyrimidinediamine]",IC50,Primary human T-cells,558 nM
same,IC50,[1],90.6 nM
"Cc1noc(COc2ccc(Nc3nc(Nc4ccc(S(N)(=O)=O)cc4)ncc3F)cc2)n1 [Compound I-268, N2-(4-Aminosulfonylphenyl)-5-fluoro-N4-(4-[3-methyl-1,2,4-oxadiazol-5-yl]methyleneoxyphenyl)-2,4-pyrimidinediamine]",IC50,Primary human T-cells,140 nM
same,IC50,[1],60.7 nM
"CCN(CC)CCNS(=O)(=O)c1ccc(Nc2ncc(F)c(Nc3ccc(CC#N)cc3)n2)cc1 [III-2, N2-[4-(2-N,N-Diethylaminoethyl)aminosulfonylphenyl)-5-fluoro-N4-(4-cyanomethylphenyl)-2,4-pyrimidinediamine]",IC50,Primary human T-cells,3440 nM
same,IC50,[1],224 nM
"Cc1ccc(Nc2ncc(F)c(Nc3ccc(CCC#N)cc3)n2)cc1S(N)(=O)=O [III-15, N2-(3-Aminosulfonyl-4-methylphenyl)-N4-[4-(cyanoethylene)phenyl]-5-fluoro-2,4-pyrimidinediamine]",IC50,Primary human T-cells,107 nM
same,IC50,[1],76 nM
"Cc1cc(COc2ccc(Nc3nc(Nc4cc(Cl)c(C)c(S(N)(=O)=O)c4)ncc3F)cc2F)no1 [Compound I-223, N2-(3-Aminosulfonyl-5-chloro-4-methylphenyl)-5-fluoro-N4-[3-fluoro-4-(5-methylisoxazol-3-yl)methyleneoxyphenyl]-2,4-pyrimidinediamine]",IC50,Primary human T-cells,625 nM
same,IC50,[1],88 nM
"Cc1ccc(Nc2ncc(F)c(Nc3ccc(OC4CCCN(C)C4)cc3)n2)cc1S(N)(=O)=O (racemic) [II-4, Racemic N2-(3-aminosulfonyl-4-methylphenyl)-5-fluoro-N4-{4-[(1-methylpiperidin-3-yl)oxy]phenyl}-2,4-pyrimidinediamine]",IC50,Primary human T-cells,2370 nM
same,IC50,[1],316 nM
"Cc1ccc(Nc2ncc(F)c(Nc3ccc(OC4CCCN(C)C4)c(Cl)c3)n2)cc1S(N)(=O)=O (racemic) [II-3, Racemic N2-(3-aminosulfonyl-4-methylphenyl)-N4-{3-chloro-4-[(1-methylpiperidin-3-yl)oxy]phenyl}-5-fluoro-2,4-pyrimidinediamine]",IC50,Primary human T-cells,918 nM
same,IC50,[1],84 nM
"Cc1noc(COc2ccc(Nc3nc(Nc4cc(C)c(Cl)c(S(N)(=O)=O)c4)ncc3F)cc2)n1 [Compound I-265, N2-(3-Aminosulfonyl-4-chloro-5-methylphenyl)-5-fluoro-N4-[4-(3-methyl-1,2,4-oxadiazol-5-yl)methyleneoxyphenyl]-2,4-pyrimidinediamine]",IC50,Primary human T-cells,39.7 nM
same,IC50,[1],42.3 nM
"N#CCOc1ccc(Nc2nc(Nc3cccc(S(N)(=O)=O)c3)ncc2F)cc1 [Compound I-17, N2-(3-Aminosulfonyl)phenyl-N4-(4-cyanomethoxy)phenyl-5-fluoro-2,4-pyrimidinediamine]",IC50,Primary human T-cells,43.2 nM
same,IC50,[1],48.7 nM
"N#CCc1ccc(Nc2nc(Nc3ccc(F)c(S(N)(=O)=O)c3)ncc2F)cc1 [III-10, N2-(3-Aminosulfonyl-4-fluoro)phenyl-N4-(4-cyanomethyl)phenyl-5-fluoro-2,4-pyrimidinediamine]",IC50,Primary human T-cells,922 nM
same,IC50,[1],225 nM
"CN1CCC(Oc2ccc(Nc3nc(Nc4cccc(S(N)(=O)=O)c4)ncc3F)cc2)C1 (stereo not shown) [II-9, N2-(3-Aminosulfonylphenyl)-5-fluoro-N4-(N-methylpyrrolidin-3-yloxyphenyl)-2,4-pyrimidinediamine]",IC50,Primary human T-cells,1320 nM
same,IC50,[1],232 nM
"Cc1nc(COc2ccc(Nc3nc(Nc4cccc(S(N)(=O)=O)c4)ncc3F)cc2)cs1 [Compound I-281, N2-(3-Aminosulfonylphenyl)-5-fluoro-N4-[4-(2-methylthiazol-4-yl)methyleneoxyphenyl]-2,4-pyrimidinediamine]",IC50,Primary human T-cells,90.4 nM
same,IC50,[1],93.2 nM
"N2-(3-Aminocarbonyl-5-methylphenyl)-5-fluoro-N2-[4-(1-ethylpyrazol-5-yl)amidophenyl)-2,4-pyrimidinediamine [II-20]",IC50,Primary human T-cells,969 nM
same,IC50,[1],428 nM
"N2-[3-Aminosulfonyl-4-(4-methylpiperazin-1-yl)phenyl]-5-fluoro-N4-[2-fluoro-4-(5-methylisoxazol-3-yl)methyleneoxyphenyl]-2,4-pyrimidinediamine [Compound I-251]",IC50,Primary human T-cells,155 nM
same,IC50,[1],167 nM
"CCN(CC)CCNS(=O)(=O)c1ccc(Nc2ncc(F)c(Nc3cccc(OCc4nc(C)no4)c3)n2)cc1 [Compound I-256, N2-[4-(2-N,N-Diethylaminoethyl)aminosulfonylphenyl)-5-fluoro-N4-[3-(3-methyl-1,2,4-oxadiazol-5-yl)methyleneoxyphenyl]-2,4-pyrimidinediamine]",IC50,Primary human T-cells,38200 nM
same,IC50,[1],282 nM
"Cc1noc(COc2ccc(Nc3nc(Nc4cccc(S(=O)(=O)NCc5oc(=O)oc5C)c4)ncc3F)cc2)n1 [Compound I-257, N2-{3-[(N-5-Methyl-1,3-dioxolene-2-one-4-yl)methylene]aminosulfonylphenyl}-5-fluoro-N4-[4-(3-methyl-1,2,4-oxadiazol-5-yl)methyleneoxyphenyl]-2,4-pyrimidinediamine]",IC50,Primary human T-cells,102 nM
same,IC50,[1],145 nM
"Cc1nc(COc2ccc(Nc3nc(Nc4ccc(S(N)(=O)=O)cc4)ncc3F)cc2)cs1 [Compound I-285, N2-(4-Aminosulfonylphenyl)-5-fluoro-N4-[4-(2-methylthiazol-4-yl)methyleneoxyphenyl]-2,4-pyrimidinediamine]",IC50,Primary human T-cells,314 nM
same,IC50,[1],133 nM
"CCN(CC)CCNS(=O)(=O)c1cccc(Nc2ncc(F)c(Nc3ccc(OCc4cc(C)on4)cc3)n2)c1 [Compound I-241, N2-[3-(2-N,N-Diethylaminoethyl)aminosulfonylphenyl)-5-fluoro-N4-[4-(5-methylisoxazol-3-yl)methyleneoxyphenyl]-2,4-pyrimidinediamine]",IC50,Primary human T-cells,442 nM
same,IC50,[1],266 nM
"NS(=O)(=O)c1cccc(Nc2ncc(F)c(Nc3cccc(CNC(=O)C4CC4)c3)n2)c1 [III-39, N2-(3-aminosulfonyl)phenyl-N4-(3-cyclopropylcarbonylaminomethyl)phenyl-5-fluoro-2,4-pyrimidinediamine]",IC50,Primary human T-cells,130 nM
same,IC50,[1],117 nM
"CCN(CC)CCNS(=O)(=O)c1ccc(Nc2ncc(F)c(Nc3ccc(OCc4nc(C)no4)cc3)n2)cc1 [Compound I-263, N2-[4-(2-N,N-Diethylaminoethyl)aminosulfonylphenyl)-5-fluoro-N4-[4-(3-methyl-1,2,4-oxadiazol-5-yl)methyleneoxyphenyl]-2,4-pyrimidinediamine]",IC50,Primary human T-cells,64.4 nM
same,IC50,[1],124 nM
"Cc1cc(COc2ccc(Nc3nc(Nc4cccc(S(N)(=O)=O)c4)ncc3F)cc2C)no1 [Compound I-238, N2-(3-Aminosulfonylphenyl)-5-fluoro-N4-[3-methyl-4-(5-methylisoxazol-3-yl)methyleneoxyphenyl]-2,4-pyrimidinediamine]",IC50,Primary human T-cells,456 nM
same,IC50,[1],165 nM
"Cc1noc(CCc2ccc(Nc3nc(Nc4ccc(F)c(S(N)(=O)=O)c4)ncc3F)cc2)n1 [Compound I-267, N2-(3-Aminosulfonyl-4-fluorophenyl)-5-fluoro-N4-[4-(3-methyl-1,2,4-oxadiazol-5-yl)ethylenephenyl]-2,4-pyrimidinediamine]",IC50,Primary human T-cells,2020 nM
same,IC50,[1],328 nM
"N#CCCc1ccc(Nc2nc(Nc3cccc(S(N)(=O)=O)c3)ncc2F)cc1 [III-14, N2-(3-aminosulfonylphenyl)-N4-[4-(cyanoethylene)phenyl]-5-fluoro-2,4-pyrimidinediamine]",IC50,Primary human T-cells,52.6 nM
same,IC50,[1],140 nM
"Cc1ccc(Nc2ncc(F)c(Nc3ccc(OCC#N)cc3)n2)cc1S(N)(=O)=O [Compound I-20, N2-(3-Aminosulfonyl-4-methyl)phenyl-N4-(4-cyanomethoxy)phenyl-5-fluoro-2,4-pyrimidinediamine]",IC50,Primary human T-cells,66.2 nM
same,IC50,[1],36.7 nM
"N#CCc1ccc(Nc2nc(Nc3cccc(S(N)(=O)=O)c3)ncc2F)cc1 [III-4, N2-(3-Aminosulfonyl)phenyl-N4-(4-cyanomethyl)phenyl-5-fluoro-2,4-pyrimidinediamine]",IC50,Primary human T-cells,171 nM
same,IC50,[1],18.7 nM
"Cc1ccc(Nc2ncc(F)c(Nc3cccc(OC4CCCN(C)C4)c3)n2)cc1S(N)(=O)=O (racemic) [II-1, Racemic N2-(3-aminosulfonyl-4-methylphenyl)-5-fluoro-N4-{3-[(1-methylpiperidin-3-yl)oxy]phenyl}-2,4-pyrimidinediamine]",IC50,Primary human T-cells,1140 nM
same,IC50,[1],182 nM
"Cc1cc(COc2ccc(Nc3nc(Nc4cc(Cl)c(C)c(S(N)(=O)=O)c4)ncc3F)cc2C)no1 [Compound I-216, N2-(3-Aminosulfonyl-5-chloro-4-methylphenyl)-5-fluoro-N4-[3-methyl-4-(5-methylisoxazol-3-yl)methyleneoxyphenyl]-2,4-pyrimidinediamine]",IC50,Primary human T-cells,493 nM
same,IC50,[1],205 nM
"CN1CCN(S(=O)(=O)c2cccc(Nc3ncc(F)c(Nc4ccc(OCC#N)cc4)n3)c2)CC1 [Compound I-19, N4-(4-Cyanomethoxy)phenyl-5-fluoro-N2-[3-(4-methylpiperazin-1-yl)sulfonyl]phenyl-2,4-pyrimidinediamine]",IC50,Primary human T-cells,1040 nM
same,IC50,[1],509 nM
"N#CCCc1ccc(Nc2nc(Nc3cccc(S(N)(=O)=O)c3)ncc2F)cc1C(F)(F)F [III-31, N4-(4-Cyanoethylene-3-trifluoromethylphenyl)-5-fluoro-N2-(3-aminosulfonylphenyl)-2,4-pyrimidinediamine]",IC50,Primary human T-cells,328 nM
same,IC50,[1],95.4 nM
